Here are results for ten molecules from ChEMBL document CHEMBL1156876, “Design and study of peptide-based inhibitors of amylin cytotoxicity” (Bioorg Med Chem Lett, 2010).

Data set [1] is described as follows: Cytotoxicity against rat RIN5F cells at 225 uM. The format is cell-based.
A short description of data set [2]: Inhibition of amylin-induced cytotoxicity in rat RIN5F cells at 225 uM after 24 hrs by MTT assay relative to control. Also noted: scale not given: the % may be the effect or the level left. Type of data set: functional.

Non-standard residues stand in square brackets, D forms with d. Residues, ends and D or L forms follow the SMILES beside them. NMeH = CN[C@@H](Cc1c[nH]cn1)C(=O)O; NMeF = CN[C@@H](Cc1ccccc1)C(=O)O; NMeI = CC[C@H](C)[C@H](NC)C(=O)O; NMeT = CN[C@H](C(=O)O)[C@@H](C)O; NMeN = CN[C@@H](CC(N)=O)C(=O)O; NMeL = CN[C@@H](CC(C)C)C(=O)O; NMeV = CN[C@H](C(=O)O)C(C)C; NMeS = CN[C@@H](CO)C(=O)O; NMeA = CN[C@@H](C)C(=O)O; Sar = CNCC(=O)O

`CC(C)C[C@@H](C(=O)N(C)[C@@H](C)C(N)=O)N(C)C(=O)[C@H](CCCNC(=N)N)N(C)C(=O)[C@H](CCC(N)=O)N(C)C(=O)[C@@H](N)[C@H](C)O`: the Activity entry in data set [1] was “Non-toxic”.
Turning to `CC(C)C[C@@H](C(=O)N(C)[C@H](C(=O)N(C)[C@@H](Cc1cnc[nH]1)C(=O)N(C)[C@@H](CO)C(=O)N(C)[C@@H](CO)C(N)=O)C(C)C)N(C)C(=O)[C@@H](N)Cc1ccccc1` (H-F[NMeL][NMeV][NMeH][NMeS][NMeS]-NH2), the Activity result in data set [1] is recorded as “Non-toxic”.
Regarding `C[C@H](NC(=O)[C@@H](NC(=O)[C@@H](N)CC(N)=O)[C@@H](C)O)C(=O)N[C@H](C(N)=O)[C@@H](C)O` (H-NTAT-NH2), the Activity entry in data set [1] is given as “Non-toxic”; in data set [2] it was 25%.
For `CC[C@H](C)[C@@H](C(=O)N(C)[C@@H](CC(C)C)C(N)=O)N(C)C(=O)[C@H](C)N(C)C(=O)CN(C)C(=O)[C@H](Cc1ccccc1)N(C)C(=O)[C@@H](N)CC(N)=O` (H-N[NMeF][Sar][NMeA][NMeI][NMeL]-NH2), the Activity result in data set [1] was “Non-toxic”.
As for `C[C@@H](O)[C@@H](C(=O)N(C)[C@@H](C)C(=O)N(C)[C@H](C(N)=O)[C@@H](C)O)N(C)C(=O)[C@@H](N)CC(N)=O` (H-N[NMeT][NMeA][NMeT]-NH2), in data set [1], the Activity result is “Non-toxic”.
As to `CC(C)[C@@H](C(=O)N(C)CC(=O)N(C)[C@@H](CO)C(N)=O)N(C)C(=O)[C@H](CC(N)=O)N(C)C(=O)[C@H]([C@@H](C)O)N(C)C(=O)[C@@H](N)CO` (H-S[NMeT][NMeN][NMeV][Sar][NMeS]-NH2), the Activity entry in data set [1] was “Non-toxic”.
Take H-FLVHSS-NH2: the results for the Activity entry in data set [1] and in data set [2] were “Non-toxic” and 20%, respectively.
In the same order, the values of H-NFGAIL-NH2 are “Non-toxic” and 50%.
As to H-STNVGS-NH2, the Activity result in data set [1] is reported as “Non-toxic”; in data set [2] it was 18%.
On to H-TQRLA-NH2, for which the Activity entry in data set [1] is listed as “Non-toxic”; in data set [2] it was 50%.
